Records with an inconclusive call do not appear.
Tested on: intracellular Trypanosoma cruzi in host cells, plate reader
Assay: intracellular Trypanosoma cruzi inhibitors in host cells – cell-based, plate reader, cherry-pick samples, set 3, dose response (AID 651818)

C[C@@H]1CN([C@@H](C)CO)C(=O)c2cccc(NC(=O)c3ccncc3)c2O[C@H]1CN(C)Cc1ccc(Oc2ccccc2)cc1
AC50: < 0.075 µM

— PubChem BioAssay AID651818 (Broad Institute, 2012)
